For orientation: inhibition means the drop in the measured response relative to a control, in per cent. The low end stands for little suppression, the high end for strong suppression.

The source of these data is paper PMC6934184, “Selective DNA-PKcs inhibition extends the therapeutic index of localized radiotherapy and chemotherapy” (The Journal of Clinical Investigation, 2019).

This assay concerns the target T1, AURKB (Aurora B) (Homo sapiens, UniProt Q96GD4).
T1 construct: purchased Thermo Fisher Scientific (Life Technologies) SelectScreen
Put plainly: SelectScreen Z'LYTE. It counts as biochemical. A digest of the protocol:
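SelectScreen broad panel; activity (Z'LYTE, Adapta) plus binding formats. ATP: Km app for CSF1R Z'LYTE; 10 for CAMK1 Adapta. Readout = % per kinase.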

T1 sequence (Q96GD4 whole entry): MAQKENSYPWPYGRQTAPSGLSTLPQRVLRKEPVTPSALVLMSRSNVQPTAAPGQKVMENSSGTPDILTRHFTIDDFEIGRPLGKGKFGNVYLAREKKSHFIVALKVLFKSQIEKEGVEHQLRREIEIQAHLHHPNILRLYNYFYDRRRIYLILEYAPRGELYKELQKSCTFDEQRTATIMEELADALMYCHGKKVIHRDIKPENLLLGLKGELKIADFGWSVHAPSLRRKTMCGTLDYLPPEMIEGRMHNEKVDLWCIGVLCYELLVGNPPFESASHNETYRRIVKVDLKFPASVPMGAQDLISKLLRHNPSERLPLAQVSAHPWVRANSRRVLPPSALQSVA

Compound `CN(C(=O)CN1CCOCC1)c1ccc2sc3c(-c4cccc5c(=O)cc(N6CC7CCC(C6)O7)oc45)cccc3c2c1` [NU5455] registered an inhibition at 1 µM of 1.7%.
